Values quoted from earlier work as cited in US20090118503A1, “FAAH INHIBITORS” (priority 2007, published 2009).

How the values were obtained:
MCF-7 cells = conditions: up to 100 μM

Row | SMILES | cell viability (as assessed by trypan blue) (MCF-7 cells) | ability to inhibit prostaglandin synthesis (prostaglandin synthesis)
1 | CCCCC/C=C\C/C=C\C/C=C\C/C=C\CCCC(=O)NCCO [anandamide] | No significant decrease in cell viability | 
2 | Cc1c(CC(=O)O)c2cc(O)ccc2n1C(=O)c1ccc(Cl)cc1 [desmethyl metabolite, (1-(4-chlorobenzoyl)-5-hydroxy-2-methyl-1H-indol-3-yl]acetic acid] |  | some ability to inhibit prostaglandin synthesis
